# According to US9488641B2, “Multicellular system and method for multiparametric analysis” (Case Western Reserve University, priority 2012, dated 2016):
# “Also recorded” adds a separate entry of the source.
# Legend:
# [1] = test system: BAC1.2F5 macrophage cells; assay: Oxygen uptake by BAC1.2F5 macrophage cells measured with Pt microring electrode (pulse amperometry); format: cell-based, mouse
# Experimental: A CHI 1030 8-channel potentiostat (CH Instruments Inc., Austin, TZ) was used to perform all electrochemical experiments: Cyclic Voltammetry (CV) and Pulse Amperometry (PA). The experimental setup was placed inside a custom built Faraday cage which was equipped with an XYZ stage for manipulation of the devices and a custom built thermostat to maintain the temperature inside the Faraday cage at 25° C. A Scion camera was mounted on top of the Faraday cage to visual observation of the sensing unit of interest. The microfabricated Pt microring electrode was used as the working electrode of the electrochemical cell. An Ag/AgCl reference and a Pt counter electrode were used to complete the cell.
# Live mouse macrophage cells (BAC1.2F5) were used for cell experiments. Culture and disposal procedures of these cells are described by E1-Moatassim and Dubyak (el-Moatassim and Dubyak 1992) in detail.
# A 100 μL drop of cell medium with suspended cells (105 BAC 1.2F5 mouse macrophages/mL) was gently added to the buffer with a disposable plastic pipette on top of the chip ˜5 mm from the targeted sensing unit. A simple hydrodynamic manipulation technique previously developed in our laboratory (Yoshida, Tohda et al. 2003) was then used to precisely position the selected cell(s) inside the targeted microring electrode.
# ˜500 μL of the required solution was added to the buffer using a disposable plastic pipette. The buffer was then homogenized by gentle circular movements induced by the same pipette for ˜10 seconds.
# Continuous measurement will lead to sustained depletion of oxygen near the electrode. When cells are positioned near the electrodes this depletion of oxygen may perturb oxygen dependent cellular processes by decreasing the local availability of oxygen. To mitigate this undesirable effect, a pulse amperometry (PA) protocol was implemented. In this protocol the electrode potential is maintained at +0.5 V where no oxygen reduction occurs, before stepping to −0.55 V at which oxygen is reduced. The length of both pulses was chosen to be 250 ms. This restricts the time of depletion of oxygen to the cathodic pulses by allowing for replenishment of oxygen during the anodic pulses. This protocol ensures a sampling rate of 2 Hz that can assess metabolic processes occurring on the seconds time scale. Current proportional to local oxygen concentration is recorded and averaged at the end of each cathodic pulse for 50 ms. This recording period is long enough to obtain a representative value while also minimizing interference by 60 Hz noise.
# To confirm that the observed variations in oxygen concentration indicated by the MEMS device reflect physiological processes of the cell(s), we performed another experiment where the metabolic rate of the cell(s) was pharmacologically modulated. […]
# MCF7-R cells = assay: Oxygen concentration under MCF7-R model agar half spheroid measured with Au microdisc electrode array; pharmacological modulation of cellular oxygen consumption; format: cell-based; details: for Measured O2 concentration (%) after NaN3: 100 μM NaN3, representative experiment; for Change of measured oxygen concentration after addition: 100 μm [sic] NaN3, 200 μm [sic] DNP
# Experimental: Confluent plates of MCF7-R cells ere trypsinized and collected in a sterile 1 mL vial. The cell density and the total number of cells in the vial were estimated by cell counting using a hematocytometer. The cells were spun down in a centrifuge and the supernant medium removed. […] The vial with the cell-agar mixture was constantly kept in water bath at 37° C. to prevent the agar from gelling. Tiny hemispherical droplets (800-1000 μm diameter) of this mixture were deposited onto a Teflon® sheet using 0.5-2.5 μL pipette (Eppendorf, Hauppauge, N.Y.) to obtain hemispherical multicellular model agar spheroids. The Teflon® sheet with the model agar half spheroids was incubated in culture medium used for MCF7-R cell culture at 37° C. in 5% CO2. Henceforth, model agar half spheroids will be referred to simply as half spheroids.
# The Au microdisc electrodes were polished using a fine emery paper to expose fresh electrode surface before each experiment. The polished electrodes were rinsed with DI water and allowed to dry in air (˜1 hour) after which a thin (˜10 μm) layer (spacer) of cellulose acetate was deposited. The electrodes were pre-conditioned electrochemically prior to starting the half spheroid experiment by continuous cyclic voltammograms (CV) until a stable measurement was reached (at least 50 CVs). The electrodes were calibrated for oxygen reduction current in PBS at different oxygen concentrations prior to the half spheroid experiment (henceforth, referred to as pre-calibration). A half spheroid was positioned on top of the electrode array and the oxygen concentrations inside the spheroid interrogated by linear scan voltammetry (LSV). Oxygen reduction currents under the half spheroid were recorded for half an hour after which the viability of cells inside the half spheroid was checked by pharmacological modulation of cellular oxygen consumption by administering metabolic poisons—NaN3 and DNP. At the end of the experiment the spheroid was removed and current corresponding to ambient oxygen concentration was recorded. The spheroid experiment was followed by a post experiment calibration (henceforth, referred to as post-calibration) of the electrodes to check for electrode drift. The LSV data recorded during these experiments was post processed to extract oxygen concentration values under the spheroid.
# The Teflon® sheet on which half spheroids are was is removed from the incubating medium. A half spheroid was carefully transferred onto the electrode array using a curved edge of a pair of tweezers such that the radial electrode array was aligned along a spheroid radius (FIG. 8E). The positioning was done under a 2× stereo microscope to ensure that the spheroid is resting on its flat (bottom) edge. After the agar spheroid was positioned at the desired location a drop of low gelling agarose made in PBS maintained in liquid form at 37° C. was dispensed onto the spheroid from the top to secure its position and prevent it from moving with convective flow. PBS was added to the measurement device reservoir immediately after the spheroid position was secured. The time taken to position the spheroid from the time the half spheroid Petri-dish was removed from the incubator to the time when oxygen measurement is started is less than 3 minutes. During this time the cells in the spheroid (except the outer most shell) were not directly exposed to air.
# Desired volumes of the NaN3, DNP and glucose solutions were gently added to the test solution using a disposable transfer pipettes. The solution was then homogenized by gentle circular movements induced by the same pipette for ˜10 s.
compound,measurement,setting,value
C[C@@H]1O[C@@H](O[C@H]2C[C@@H](O)[C@]3(CO)[C@H]4[C@H](O)C[C@]5(C)[C@@H](C6=CC(=O)OC6)CC[C@]5(O)[C@@H]4CC[C@]3(O)C2)[C@H](O)[C@H](O)[C@H]1O [ouabain],Current higher than that recorded before administration of ouabain,[1]; cluster of 6 cells inside microring,~1.7 nA
same,Stabilized electrode current after addition of ouabain,"[1]; cluster of 6 cells inside microring, ~7.1 nA before ouabain",~8.8 nA
same,Oxygen concentration corresponding to stabilized current after ouabain,"[1]; cluster of 6 cells inside microring, ~9% before ouabain",~15%
same,Stationary local oxygen concentration immediately after administration of ouabain,[1]; representative of 3 experiments,increase
"[N-]=[N+]=[N-] [NaN3, sodium azide]",Measured O2 concentration (%) after NaN3,"MCF7-R cells; electrode E1, 610 μm from the center of the spheroid (outside spheroid), 30% cell volume fraction half spheroid",15.9%
same,Measured O2 concentration (%) after NaN3,"MCF7-R cells; electrode E2, 470 μm from the center of the spheroid, 30% cell volume fraction half spheroid",14.3%
same,Measured O2 concentration (%) after NaN3,"MCF7-R cells; electrode E3, 370 μm from the center of the spheroid, 30% cell volume fraction half spheroid",10.8%
same,Measured O2 concentration (%) after NaN3,"MCF7-R cells; electrode E4, 270 μm from the center of the spheroid, 30% cell volume fraction half spheroid",9.9%
same,Measured O2 concentration (%) after NaN3,"MCF7-R cells; electrode E5, 180 μm from the center of the spheroid, 30% cell volume fraction half spheroid",9.6%
"O=[N+]([O-])c1ccc(O)c([N+](=O)[O-])c1 [DNP, 2,4 dinitrophenol]",Change of measured oxygen concentration after addition,MCF7-R cells; 15% cell volume fraction spheroid (FIG. 30),decreases
same,Change of measured oxygen concentration after addition,MCF7-R cells; 15% cell volume fraction spheroid with 5% ambient pO2 (FIG. 34),decreases
same,Change of measured oxygen concentration after addition,MCF7-R cells; 15% cell volume fraction spheroid with 10% ambient pO2 (FIG. 33),decreases
same,Change of measured oxygen concentrations after addition,"MCF7-R cells; 30% cell volume fraction half spheroid, ~20% ambient O2, 100 μM sodium azide, then 200 μM DNP (final concentrations)",decreased rapidly; also recorded: decreases
same,Change of measured oxygen concentration after addition,"MCF7-R cells; 30% cell volume fraction spheroid as printed (FIG. 31), non-zero oxygen core",decreases
same,Oxygen consumption by the cells,"MCF7-R cells; MCF7-R cells in half spheroid, 100 μM NaN3, subsequent 200 μM DNP (final concentrations)",rapid increase
O=C[C@H](O)[C@@H](O)[C@H](O)[C@H](O)CO [D-Glucose],Change of measured oxygen concentration after addition of glucose to the PBS,MCF7-R cells; 25 mM D-Glucose added to PBS after the glucose-deprivation increase (FIG. 35),decrease
